Results as given in PMC7782168, “Synthesis, telomerase inhibitory and anticancer activity of new 2-phenyl-4H-chromone derivatives containing 1,3,4-oxadiazole moiety” (Journal of Enzyme Inhibition and Medicinal Chemistry, 2020).

Legend:
[1] = system: SGC-7901 (human gastric cancer cell); assay: In vitro anticancer (antiproliferative) MTT assay, SGC-7901; format: cell-based
Description: (§1) A375, MDA-MB-231, MGC-803, SMMC-7721, SGC-7901 and L-02 cell lines were cultured in DMEM medium supplemented with 10% (V/V) heat-inactivated fetal bovine serum (FBS) (Biological Industries, Israel) along with 100 U/mL penicillin and […] streptomycin (Beyotime, China). Cells were grown in a humidified 5% CO2 atmosphere at 37 °C and maintained in a logarithmic growth phase for all experiments.
(§2) 2.5. Anticancer assay[23]

[2] = system: MGC-803 (human gastric cancer cell); assay: In vitro anticancer (antiproliferative) MTT assay, MGC-803; format: cell-based
Description: as §1, §2

[3] = system: SMMC-7721 (human hepatoma cell); assay: In vitro anticancer (antiproliferative) MTT assay, SMMC-7721; format: cell-based
Description: as §1, §2

[4] = molecular target: T1, telomerase (Homo sapiens, UniProt O14746); assay: Telomerase activity assay using MGC-803 cells extract; format: biochemical; conditions: mean ± SD
T1 construct: assayed for telomerase activity using MGC-803 cells extract; endogenous in cells; host or cells: MGC-803 cell extract

[5] = system: human normal liver cell (L-02); assay: Toxicity against human normal liver cells, MTT assay; format: cell-based; conditions: triplicate
Description: as §1, §2
In order to determine the selective cytotoxicity of selected compounds, we subsequently conducted a proliferative inhibition assay with human normal liver cell (L-02). […] Therefore, in combination with the above points, it is quite meaningful to further explore the mechanisms of this compound.

[6] = system: MDA-MB-231 (human breast cancer cell); assay: In vitro anticancer (antiproliferative) MTT assay, MDA-MB-231; format: cell-based
Description: as §1, §2

[7] = system: A375 (human melanoma cell); assay: In vitro anticancer (antiproliferative) MTT assay, A375; format: cell-based
Description: as §1, §2

[8] = Homo sapiens, SGC-7901, mean ± SD of three experiments in triplicate
[9] = Homo sapiens, MGC-803, mean ± SD of three experiments in triplicate
[10] = Homo sapiens, SMMC-7721, mean ± SD of three experiments in triplicate
[11] = Homo sapiens, MDA-MB-231, mean ± SD of three experiments in triplicate
[12] = Homo sapiens, A-375, mean ± SD of three experiments in triplicate
[13] = mean ± SD of three experiments in triplicate

T1 sequence (O14746 whole entry): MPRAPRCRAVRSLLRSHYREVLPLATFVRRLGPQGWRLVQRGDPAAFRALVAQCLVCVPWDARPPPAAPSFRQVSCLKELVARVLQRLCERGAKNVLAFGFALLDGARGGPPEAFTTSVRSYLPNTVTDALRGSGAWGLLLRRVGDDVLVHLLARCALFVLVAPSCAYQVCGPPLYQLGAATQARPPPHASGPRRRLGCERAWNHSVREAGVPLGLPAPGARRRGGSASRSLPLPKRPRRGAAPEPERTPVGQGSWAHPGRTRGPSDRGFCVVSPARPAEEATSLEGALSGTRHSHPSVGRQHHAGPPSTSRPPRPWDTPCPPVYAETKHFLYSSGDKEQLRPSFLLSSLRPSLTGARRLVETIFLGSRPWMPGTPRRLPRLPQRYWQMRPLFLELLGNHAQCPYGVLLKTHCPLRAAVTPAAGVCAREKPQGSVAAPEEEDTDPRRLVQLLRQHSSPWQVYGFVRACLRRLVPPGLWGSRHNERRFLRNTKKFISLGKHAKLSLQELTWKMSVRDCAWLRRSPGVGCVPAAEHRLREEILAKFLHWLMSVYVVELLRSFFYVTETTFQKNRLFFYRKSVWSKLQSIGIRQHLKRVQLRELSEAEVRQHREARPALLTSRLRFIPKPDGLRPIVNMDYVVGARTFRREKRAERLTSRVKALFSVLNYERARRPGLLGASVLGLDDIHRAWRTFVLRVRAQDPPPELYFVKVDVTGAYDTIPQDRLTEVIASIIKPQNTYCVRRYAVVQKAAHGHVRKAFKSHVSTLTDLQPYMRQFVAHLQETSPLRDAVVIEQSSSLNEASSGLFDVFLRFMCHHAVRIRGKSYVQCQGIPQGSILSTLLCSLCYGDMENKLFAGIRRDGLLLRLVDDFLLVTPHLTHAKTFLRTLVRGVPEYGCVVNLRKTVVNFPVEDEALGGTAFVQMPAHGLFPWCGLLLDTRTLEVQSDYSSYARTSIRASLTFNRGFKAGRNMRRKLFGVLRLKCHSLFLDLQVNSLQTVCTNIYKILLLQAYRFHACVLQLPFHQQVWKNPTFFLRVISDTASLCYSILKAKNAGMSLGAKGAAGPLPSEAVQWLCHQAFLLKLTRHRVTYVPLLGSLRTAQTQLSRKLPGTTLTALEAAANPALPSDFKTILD
T1 sequence (O60832 2-514 partner limits assumed): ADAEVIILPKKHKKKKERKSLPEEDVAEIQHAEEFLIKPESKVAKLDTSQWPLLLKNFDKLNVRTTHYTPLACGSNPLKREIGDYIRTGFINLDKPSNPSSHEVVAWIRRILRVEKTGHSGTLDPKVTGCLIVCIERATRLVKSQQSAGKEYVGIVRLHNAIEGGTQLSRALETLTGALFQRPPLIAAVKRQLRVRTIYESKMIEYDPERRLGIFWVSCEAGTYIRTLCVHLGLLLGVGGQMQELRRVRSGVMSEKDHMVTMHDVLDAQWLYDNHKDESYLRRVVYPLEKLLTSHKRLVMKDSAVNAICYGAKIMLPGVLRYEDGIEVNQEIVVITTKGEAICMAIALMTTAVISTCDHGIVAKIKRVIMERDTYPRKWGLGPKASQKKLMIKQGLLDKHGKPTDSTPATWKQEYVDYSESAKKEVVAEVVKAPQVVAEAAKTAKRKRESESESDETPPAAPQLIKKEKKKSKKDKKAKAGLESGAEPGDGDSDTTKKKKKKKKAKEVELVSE
T1 sequence (Q9NPE3 whole entry partner): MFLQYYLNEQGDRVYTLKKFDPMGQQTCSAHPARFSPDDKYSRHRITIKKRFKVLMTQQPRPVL
T1 sequence (Q9NX24 whole entry partner): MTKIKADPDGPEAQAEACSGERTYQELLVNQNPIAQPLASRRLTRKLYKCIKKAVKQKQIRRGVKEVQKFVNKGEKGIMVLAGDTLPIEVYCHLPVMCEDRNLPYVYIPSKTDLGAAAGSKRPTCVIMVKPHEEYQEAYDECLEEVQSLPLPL
T1 sequence (Q9NY12 whole entry partner): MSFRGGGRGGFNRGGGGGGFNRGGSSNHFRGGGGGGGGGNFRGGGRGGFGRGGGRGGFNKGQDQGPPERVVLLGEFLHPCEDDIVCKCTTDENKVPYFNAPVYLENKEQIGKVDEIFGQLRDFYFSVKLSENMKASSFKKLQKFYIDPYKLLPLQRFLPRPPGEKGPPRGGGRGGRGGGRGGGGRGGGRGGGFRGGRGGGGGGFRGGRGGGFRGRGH

SMILES | IC50 [1, 8] | melting point | IC50 [2, 9] | IC50 [3, 10] | IC50 [4] | IC50 [6, 11] | IC50 [7, 12] | IC50 [1, 13] | IC50 [2, 13] | IC50 [3, 13] | IC50 [6, 13] | IC50 [7, 13] | IC50 [5]
COc1cc(OC)c2c(=O)c(OCC(=O)Nc3nnc(-c4ccc(F)cc4)o3)c(-c3cc(OC)c(OC)c(OC)c3)oc2c1 [A2, 2–(5,7-dimethoxy-4-oxo-2–(3,4,5-trimethoxyphenyl)-4H-chromen-3-yloxy)-N-(5–(4-fluorophenyl)-1,3,4-oxadiazol-2-yl)acetamide] | 56.9 ± 1.24 µM | 221 to 223 °C | 17.3 ± 2.21 µM | 8.07 ± 1.3 µM | 0.77 ± 0.13 µM | 25.1 ± 2.1 µM | 11 ± 1.54 µM |  |  |  |  |  | 1370 ± 430 µM
COc1cc(OC)c2c(=O)c(OCC(=O)Nc3nnc(-c4ccc(Cl)cc4)o3)c(-c3cc(OC)c(OC)c(OC)c3)oc2c1 [A5, N-(5–(4-chlorophenyl)-1,3,4-oxadiazol-2-yl)-2–(5,7-dimethoxy-4-oxo-2–(3,4,5-trimethoxyphenyl)-4H-chromen-3-yloxy)acetamide] | 25.4 ± 0.59 µM | 227 to 229 °C | 15.2 ± 0.41 µM | > 100 µM | 0.81 ± 0.13 µM | > 100 µM | 20.1 ± 0.62 µM |  |  |  |  |  | 1990 ± 130 µM
COc1cc(OC)c2c(=O)c(OCC(=O)Nc3nnc(-c4ccc(C(F)(F)F)cc4)o3)c(-c3cc(OC)c(OC)c(OC)c3)oc2c1 [A16, 2–(5,7-dimethoxy-4-oxo-2–(3,4,5-trimethoxyphenyl)-4H-chromen-3-yloxy)-N-(5–(4-(trifluoromethyl)phenyl)-1,3,4-oxadiazol-2-yl)acetamide] | > 100 µM | 231 to 233 °C | > 100 µM | > 100 µM | 0.62 ± 0.11 µM | > 100 µM | 10.1 ± 0.52 µM |  |  |  |  |  | 900 ± 110 µM
COc1cc(OC)c2c(=O)c(OCC(=O)Nc3nnc(-c4cccc(OC(F)(F)F)c4)o3)c(-c3cc(OC)c(OC)c(OC)c3)oc2c1 [A20, 2–(5,7-dimethoxy-4-oxo-2–(3,4,5-trimethoxyphenyl)-4H-chromen-3-yloxy)-N-(5–(3-(trifluoromethoxy)phenyl)-1,3,4-oxadiazol-2-yl)acetamide] | 10.2 ± 0.65 µM | 221 to 223 °C | 6.29 ± 0.36 µM | > 100 µM | 0.92 ± 0.17 µM | 19.5 ± 1 µM | 8.92 ± 0.69 µM |  |  |  |  |  | 620 ± 240 µM
COc1cc(OC)c2c(=O)c(OCC(=O)Nc3nnc(-c4ccc(OC)c(OC)c4)o3)c(-c3cc(OC)c(OC)c(OC)c3)oc2c1 [A27, 2–(5,7-dimethoxy-4-oxo-2–(3,4,5-trimethoxyphenyl)-4H-chromen-3-yloxy)-N-(5–(3,4-dimethoxyphenyl)-1,3,4-oxadiazol-2-yl)acetamide] | > 100 µM | 220 to 222 °C | > 100 µM | > 100 µM | 0.32 ± 0.07 µM | > 100 µM | > 100 µM |  |  |  |  |  | 1380 ± 210 µM
COc1cc(OC)c2c(=O)c(OCC(=O)Nc3nnc(-c4cccc5ccccc45)o3)c(-c3ccc(OC)c(OC)c3)oc2c1 [B28, 2–(2-(3,4-dimethoxyphenyl)-5,7-dimethoxy-4-oxo-4H-chromen-3-yloxy)-N-(5-(naphthalen-1-yl)-1,3,4-oxadiazol-2-yl)acetamide] |  | 230 to 232 °C |  |  | 1.19 ± 0.18 µM |  |  |  |  |  |  |  | 
COc1cc(OC)c2c(=O)c(OCC(=O)Nc3nnc(-c4cccc(OCc5ccccc5)c4)o3)c(-c3ccc(OC)c(OC)c3)oc2c1 [B30, N-(5–(3-(benzyloxy)phenyl)-1,3,4-oxadiazol-2-yl)-2–(2-(3,4-dimethoxyphenyl)-5,7-dimethoxy-4-oxo-4H-chromen-3-yloxy)acetamide] |  | 156 to 158 °C |  |  | > 60 µM |  |  |  |  |  |  |  | 
COc1cc(OC)c2c(=O)c(OCC(=O)Nc3nnc(-c4ccco4)o3)c(-c3ccc(OC)c(OC)c3)oc2c1 [B31, 2–(2-(3,4-dimethoxyphenyl)-5,7-dimethoxy-4-oxo-4H-chromen-3-yloxy)-N-(5-(furan-2-yl)-1,3,4-oxadiazol-2-yl)acetamide] |  | 233 to 235 °C |  |  | 2.82 ± 0.25 µM |  |  |  |  |  |  |  | 
COc1cc(OC)c2c(=O)c(OCC(=O)Nc3nnc(-c4cccs4)o3)c(-c3ccc(OC)c(OC)c3)oc2c1 [B32, 2–(2-(3,4-dimethoxyphenyl)-5,7-dimethoxy-4-oxo-4H-chromen-3-yloxy)-N-(5-(thiophen-2-yl)-1,3,4-oxadiazol-2-yl)acetamide] |  | 238 to 240 °C |  |  | 3.75 ± 0.39 µM |  |  |  |  |  |  |  | 
COc1cc(OC)c2c(=O)c(OCC(=O)Nc3nnc(/C=C/c4ccccc4)o3)c(-c3ccc(OC)c(OC)c3)oc2c1 [B33, (E)-2–(2-(3,4-dimethoxyphenyl)-5,7-dimethoxy-4-oxo-4H-chromen-3-yloxy)-N-(5-styryl-1,3,4-oxadiazol-2-yl)acetamide] | > 100 µM | 226 to 228 °C | > 100 µM | > 100 µM | 0.97 ± 0.2 µM | > 100 µM | > 100 µM |  |  |  |  |  | 1010 ± 140 µM

The next lines start with results.

IC50 [1, 8] | melting point | IC50 [2, 9] | IC50 [3, 10] | IC50 [4] | IC50 [6, 11] | IC50 [7, 12] | IC50 [1, 13] | IC50 [2, 13] | IC50 [3, 13] | IC50 [6, 13] | IC50 [7, 13] | SMILES | IC50 [5]
0.82 ± 0.43 µM |  | 0.42 ± 0.08 µM | 0.79 ± 0.13 µM |  | 0.51 ± 0.12 µM | 0.58 ± 0.2 µM |  |  |  |  |  | COc1cccc2c1C(=O)c1c(O)c3c(c(O)c1C2=O)C[C@@](O)(C(=O)CO)C[C@@H]3O[C@H]1C[C@H](N)[C@H](O)[C@H](C)O1 [ADM, Adriamycin, reference compound] | 
> 100 µM | 151 to 153 °C | > 100 µM | > 100 µM | 0.51 ± 0.1 µM | > 100 µM | > 100 µM |  |  |  |  |  | COc1cc(OC)c2c(=O)c(OCC(=O)Nc3nnc(-c4ccc(OC)c(OC)c4)o3)c(-c3ccc(OC)c(OC)c3)oc2c1 [B27, N-(5–(3,4-dimethoxyphenyl)-1,3,4-oxadiazol-2-yl)-2–(2-(3,4-dimethoxyphenyl)-5,7-dimethoxy-4-oxo-4H-chromen-3-yloxy)acetamide] | 1670 ± 250 µM
 | 228 to 230 °C |  |  | 2.98 ± 0.27 µM |  |  |  |  |  |  |  | COc1cc(OC)c2c(=O)c(OCC(=O)Nc3nnc(-c4ccc5c(c4)OCCO5)o3)c(-c3ccc(OC)c(OC)c3)oc2c1 [B29, N-(5–(2,3-dihydrobenzo[b][1, 4]dioxin-6-yl)-1,3,4-oxadiazol-2-yl)-2–(2-(3,4-dimethoxyphenyl)-5,7-dimethoxy-4-oxo-4H-chromen-3-yloxy)acetamide] | 
 |  |  |  |  |  |  | > 100 µM | > 100 µM | > 100 µM | > 100 µM | 57.58 ± 0.21 µM | C/C(=C\C(=O)Nc1ccccc1C(=O)O)c1ccc2ccccc2c1 [BIBR1532, reference compound] | 
